Data: patent US20250051337A1 (priority 2021, published 2025)
pIC50: −log10 of the molar value.

Columns and labels:
[1] = system: YAP/TAZ-TEAD activity (8×GTIIC-luciferase) in HEK293 cells; test: YAP-TAZ-TEAD luciferase assay; assay type: cell-based; conditions: 10 μM, 48 h, vs DMSO
Protocol: 8×GTIIC-luciferase was a gift from Stefano Piccolo (Addgene plasmid #34615, http://n2t.net/addgene: 34615: RRID: Addgene_34615). HEK293 cells were transfected with 8×GTIIC-luciferase plasmid and control Renilla luciferase plasmid using jetPRIME transfection reagent (Polyplus-transfection RSA: New York, NY. USA) for 24 h and cultured in Dulbeco's Modified Eagle Media (DMEM) Glutamax supplemented with 10% Fetal Bovine Serum (FBS), antibiotic/antimycotic, and sodium pyruvate (Gibco. Thermo FisherScientific: Waltham. MA. USA). The transfected cells were treated with 10 μM compound in triplicate and incubated for 48 h at 37° C. Firefly and Renilla luminescence were detected with a Dual-Glo Luciferase Assay System (Promega #E2920) according to the manufacturer's recommendations. The ratio of firefly to Renilla luminescence was calculated for each well and normalized to the ratio in control cells incubated with DMSO.
STK3/4 can negatively regulate the activity of the YAP/TAZ-TEAD protein complex and, accordingly, inactivation of these kinases reduces the transcription of YAP/TAZ-TEAD target genes. […] The results confirmed the intracellular on-target activity of our potent compounds for inhibiting STK3 and STK4 activity and targeting gene expression in the Hippo signaling pathway.

[2] = target: STK4 (Homo sapiens (Human), UniProt Q13043); test: NanoBRET intracellular kinase assay, STK4; assay type: cell-based; conditions: transfected HEK293 cells, 2 h
STK4, sequence (Q13043 whole entry, the tested form may be a part): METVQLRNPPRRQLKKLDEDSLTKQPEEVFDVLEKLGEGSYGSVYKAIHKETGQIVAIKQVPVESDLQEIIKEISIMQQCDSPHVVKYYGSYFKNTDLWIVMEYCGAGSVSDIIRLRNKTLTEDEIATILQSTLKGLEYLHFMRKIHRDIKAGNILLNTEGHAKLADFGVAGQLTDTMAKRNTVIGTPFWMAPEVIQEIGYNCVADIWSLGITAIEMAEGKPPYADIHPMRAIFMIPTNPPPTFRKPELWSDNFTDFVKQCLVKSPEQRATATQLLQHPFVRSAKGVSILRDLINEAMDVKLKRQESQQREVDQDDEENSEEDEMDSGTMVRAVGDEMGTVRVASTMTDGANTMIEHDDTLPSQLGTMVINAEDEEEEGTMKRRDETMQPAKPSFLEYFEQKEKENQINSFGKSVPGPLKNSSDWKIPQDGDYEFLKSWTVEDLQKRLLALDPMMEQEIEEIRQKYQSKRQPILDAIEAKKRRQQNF
Protocol: (§1) Full-length STK3, STK4, and LRRK2 kinase was cloned in-frame with a C-terminal NanoLuc-fusion (Promega: Madison, WI, USA) and the plasmid was transfected into HEK293T cells using FuGENE HD (Promega, E2312). […] After 2 h at 37° C. in a 5% CO2 atmosphere, NanoBRET NanoGlo Substrate+Extra-cellular NanoLuc Inhibitor (Promega, N2540) was added, and filtered luminescence was measured on a PHERAstar plate reader (BMG Labtech; Ortenberg, Germany) equipped with a lumi-nescence filter pair (450 nm BP filter (donor) and 610 nm LP filter (acceptor)).
(§2) This assay measured the apparent affinity of test compounds by competitive displacement of the NanoBRET™ tracer, reversibly bound to a NanoLuc® luciferase-kinase fusion in cells. To evaluate potential off-target activity of the inhibitors, the inhibition of LRRK2 in live cells by the STK3/4 inhibitors compounds described herein were measured. […] A 50 nM tracer and these compounds were added to cells and incubated for 2 h.

[3] = target: STK3 (Homo sapiens (Human), UniProt Q13188); test: NanoBRET intracellular kinase assay, STK3; assay type: cell-based; conditions: NanoBRET, transfected HEK293 cells, 2 h; read-out: STK3: IC50
Protocol: as §1, §2

[4] = in vivo; conditions: female, C57BL/6J, mouse, ip, 10 mg/kg
Protocol: All animal procedures were approved by the Sanford Burnham Prebys Medical Discovery Institute Institutional Animal Care and Use Committee and were performed according to the NIH guidelines for the Care and Use of Laboratory Animals. Adult female C57BL/6J mice were purchased from Jackson Laboratories and housed with free access to food and water on a 12 h light/dark cycle. Compounds were formulated in 5% DMSO, 10% Tween-80, and 85% H2O and injected intraperitoneally at 10 or 20 mg/kg. Blood samples were collected retro-orbitally at the indicated times and plasma was prepared by centrifugation. Livers were collected post mortem at the indicated times.
For quantification of compound, plasma samples were extracted with acetonitrile: water 4:1 with 0.1% formic acid containing indomethacin as an internal standard. Samples were centrifuged and the supernatants were diluted with acetonitrile: water and analyzed by LC-MS/MS using a Shimadzu Nexera X2 High-performance liquid chromatography (HPLC) (Shimadzu Scientific Instruments: Kyoto, Japan) coupled to an AB Sciex 6500 QTRAP (AB Sciex LLC: Toronto, Canada).

[5] = system: phosphorylated MOB1 (Thr35) in HEK293 cells; test: Western blot analysis of p-MOB1 in HEK293 cells; assay type: cell-based; conditions: 10 μM, 4 h, then H2O2 50 μM 2 h, vs DMSO
Protocol: Cells were harvested by pipetting, pelleted by centrifugation at 1400 rpm for 4 min, and lysed in RIPA buffer for 10 min at room temperature. The lysates were centrifuged at 12,000×g at room temperature (RT) for 10 min and the supernatants were recovered. Protein concentrations in the supernatants were determined using a BCA assay (Pierce/Thermo Scientific). Proteins were separated on NovexTM WedgeWellTM 4-20% Tris-Glycine Gels (Invitrogen; Carlsbad, CA, USA) and transferred to polyvinylidene difluoride (Trans-Blot® TurboTM Transfer Pack) membranes. […] Danvers. MA. USA). Blots were rinsed three times with TBST and then incubated in 5% nonfat milk containing horseradish peroxidase (HRP)-conjugated mouse anti-rabbit IgG secondary Ab (Cell Signaling Technology) for 1 h at RT. Blots were washed three times with TBST, developed using Pierce® ECL Western Blotting reagent, and imaged and analyzed using with ImageJ software. Quantitative data are expressed as the level of phosphorylated MOB1 normalized to total MOB1. To confirm that the cellular mechanism of action of our inhibitors was through inhibition of Hippo pathway signaling. […] Inhibition of STK3/4 in vitro and in vivo can produce decreased phosphorylation of the Hippo pathway adapter protein MOB1 at […].

Clc1cccc(-c2c[nH]c3ncnc(N4CCOCC4)c23)c1 [Compound 6, 4-(5-(3-Chlorophenyl)-7H-pyrrolo[2,3-d]pyrimidin-4-yl)morpholine]
YAP/TAZ-TEAD activity (luciferase reporter) [1]: marked increase
pIC50 [2]: > 6.00

NC(=O)c1cccc(-c2c[nH]c3ncnc(N4CCOCC4)c23)c1 [Compound 11, 3-(4-Morpholino-7H-pyrrolo[2,3-d]pyrimidin-5-yl)benzamide]
pIC50 [3]: > 6.00
AUC(0-t) [4]: 9.5 µM·h
Cmax [4]: 10.9 µM
Tmax [4]: 30 min
half-life [4]: 42 min
YAP/TAZ-TEAD activity (luciferase reporter) [1]: marked increase

OC1CCN(c2ncnc3[nH]cc(-c4cccc(Cl)c4)c23)CC1 [Compound 16, 1-(5-(3-Chlorophenyl)-7H-pyrrolo[2,3-d]pyrimidin-4-yl)piperidin-4-ol]
pIC50 [3]: > 6.00
relative expression level of phosphorylated MOB1 [5]: significant reduction
AUC(0-t) [4]: 4.3 µM·h
Cmax [4]: 5.8 µM
Tmax [4]: 15 min
half-life [4]: 594 min
YAP/TAZ-TEAD activity (luciferase reporter) [1]: marked increase
pIC50 [2]: > 6.00

Clc1cccc(-c2c[nH]c3nccc(N4CCOCC4)c23)c1 [Compound 23, 4-(3-(3-chlorophenyl)-1H-pyrrolo[2,3-b]pyridin-4-yl)morpholine]
pIC50 [3]: > 6.00
relative expression level of phosphorylated MOB1 [5]: significant reduction
YAP/TAZ-TEAD activity (luciferase reporter) [1]: marked increase
pIC50 [2]: > 6.00

CC(=O)NC1CCN(c2ncnc3[nH]cc(-c4cccc(Cl)c4)c23)CC1 [Compound 105, N-(1-(5-(3-chlorophenyl)-7H-pyrrolo[2,3-d]pyrimidin-4-yl)piperidin-4-yl)acetamide]
pIC50 [3]: > 6.00
relative expression level of phosphorylated MOB1 [5]: significant reduction
AUC(0-t) [4]: 8.1 µM·h
Cmax [4]: 11.8 µM
Tmax [4]: 15 min
half-life [4]: 318 min
pIC50 [2]: > 6.00
